Test: xn = mol fraction of the nth substance listed
Conditions: 101 kPa, Liquid, Vibrating tube method

CN(C)CCCN [N,N-dimethyl-1,3-propanediamine] + O
mass density [kg/m3]
Conditions | 338.15 K | 343.15 K | 348.15 K | 353.15 K
x2 = 0 | – | 772.29 | 767.7 | 763.1
x2 = 0.0403 | – | 775.35 | 770.76 | 766.14
x2 = 0.0811 | – | 778.48 | 773.88 | 769.25
x2 = 0.1198 | – | 781.64 | 777.03 | 772.39
x2 = 0.16 | – | 785.1 | 780.49 | 775.84
x2 = 0.1996 | – | 788.71 | 784.09 | 779.43
x2 = 0.2498 | 798.22 | 793.62 | 788.99 | 784.32
x2 = 0.2998 | 803.53 | 798.93 | 794.3 | 789.63
x2 = 0.3499 | 809.21 | 804.61 | 799.97 | 795.29
x2 = 0.3997 | 815.49 | 810.89 | 806.24 | 801.55
x2 = 0.4501 | 822.44 | 817.83 | 813.18 | 808.48
x2 = 0.4998 | 830.08 | 825.45 | 820.79 | 816.07
x2 = 0.5501 | 838.71 | 834.08 | 829.41 | 824.69
x2 = 0.5999 | 848.24 | 843.6 | 838.92 | 834.17
x2 = 0.6498 | 858.94 | 854.29 | 849.59 | 844.83
x2 = 0.7 | 871.13 | 866.47 | 861.76 | 857
x2 = 0.7499 | 884.69 | 880.03 | 875.32 | 870.56
x2 = 0.8 | 899.72 | 895.11 | 890.44 | 885.71
x2 = 0.84 | 912.9 | 908.37 | 903.78 | 899.14
x2 = 0.8799 | 926.91 | 922.56 | 918.14 | 913.67
x2 = 0.9 | 934.27 | 930.05 | 925.79 | 921.45
x2 = 0.92 | 941.89 | 937.89 | 933.81 | 929.67
x2 = 0.94 | 949.91 | 946.17 | 942.35 | 938.45
x2 = 0.9597 | 958.38 | 954.98 | 951.46 | 947.86
x2 = 0.975 | 965.78 | 962.66 | 959.41 | 956.07
x2 = 0.99 | 974.07 | 971.18 | 968.15 | 965.01

Reference: the NIST ThermoML archive (doi:10.1016/j.tca.2006.04.016)
